Data as given in article PMC12518639, “Apomorphine is a novel necroptosis inhibitor targeting mixed lineage kinase domain-like protein oligomerization” (Cell Death Discovery, 2025).

Legend:
THP-1 cells = test: PI uptake assay after TBZ treatment; type: cell-based; conditions: Homo sapiens; THP-1, TBZ, 8 h
Experimental: To identify potential inhibitors of the necroptosis pathway targeting MLKL or the process of p-MLKL pore formation on the membrane, we screened a library of 2150 compounds, including FDA-approved drugs and those in phase 1–3 clinical trials, using THP-1-HMGB1-Lucia™ cells expressing the HMGB1-luciferase fusion protein. The cells were treated with a necroptosis-inducing mixture containing TNF-α, BV6, and Z-VAD-FMK (TBZ) in addition to the compound library (Fig. 1A). The supernatants were harvested to measure luciferase activities for necroptosis. The luciferase activities of cell supernatants treated with TBZ alone were considered as the maximum release (100%) of HMGB1-luciferase. NEC-1, a known RIP1 inhibitor used in both humans and mice, was used as a positive control. An initial screening was performed to identify compounds that reduced luciferase activity to within 20% of the TBZ-treated supernatant, and 72 compounds (S1–S72) were selected (Table S1). Among these compounds were four known necroptosis inhibitors of pazopanib (S10), bardoxolone (S16), ponatinib (S17), and dabrafenib (S31), indicating the reliability of this screening assay. […]
PI uptake assays were performed in triplicate to evaluate pore formation on the plasma membrane. […] Fluorescence was recorded using a Varioskan Flash 3001 plate reader (Thermo Fisher Scientific, Waltham, MA, USA).

[1] = system: APAP-induced liver injury in MLKL−/− C57BL/6 mice; test: APAP-induced liver injury in MLKL knockout mice; type: in vivo, mouse; conditions: 15 mg/kg, 400 mg/kg APAP, 24 h
Experimental: For APAP-induced liver injury, male BALB/c mice aged 6–8 weeks (Central Lab Animal Inc., S. Korea) and male MLKL^–/– C57BL/6 mice aged 6–8 weeks (Cyagen, Santa Clara, CA, USA) were administered acetaminophen (APAP; 400–500 mg/kg, 103-90-2, Sigma-Aldrich) by i.p. injection to induce liver injury in the presence or absence of APO after 12 h of fasting. After 24 h, the mice were sacrificed to obtain liver tissues for further analysis.
For liver tissue preparation, each liver was perfused with DPBS and then fixed in 4% paraformaldehyde (PFA; PC2031-050-00, Biosesang, S. Korea) before embedding in paraffin. Sections were stained with H&E, and necrotic areas were quantified using ImageJ by calculating the proportion of pale or unstained regions relative to the total tissue area. Mouse liver sections were subjected to IHC staining to assess distinct forms of cell death: an anti-p-MLKL antibody (MA5-32752, Thermo Fisher Scientific) to evaluate p-MLKL localization (necroptosis), a TUNEL assay kit (4810-30-K, R&D Systems) for apoptosis, and an anti-4-HNE antibody (GTX01087, GeneTex) for ferroptosis.
Fig. S6 APO reduces liver damage in MLKL^–/– mice. […] Necrotic areas were quantified as the proportion of unstained regions relative to the total tissue area. […] (D) Serum AST and ALT levels were evaluated to assess liver injury after APAP injection. […]

IC50 (THP-1 cells) | Structure (SMILES) | hepatic damage (H&E, ALT, AST, TUNEL, 4-HNE) [1]
5.7 µM | CN1CCc2cccc3c2[C@@H]1Cc1ccc(O)c(O)c1-3 [S62, (6aS)-6-methyl-5,6,6a,7-tetrahydro-4H-dibenzo[de,g]quinoline-10,11-diol] | –
– | CN1CCc2cccc3c4c(cc1c23)C=CC(=O)C4=O [Ox-APO] | significantly reduced
